Assay results taken from patent publication US12077503B2, “Substituted cyclic amides and their use as herbicides” (FMC CORPORATION, priority 2015, dated 2024).

What was measured:
Type in all cases: in vivo
[1] = tested on: Kochia (Kochia scoparia); assay: Test A preemergence; conditions: Bassia scoparia, pre-emergence, 240 h, 0 to 100 scale where 0 is no effect and 100 is complete control, read-out: Kochia plant response rating
Method in brief: (§1)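 Preemergence soil spray on seeded pots or post-emergence spray on 1–2 leaf plants, in loam–sand blend. Greenhouse ~10 d. Visual rating 0–100 against untreated plants.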

[2] = tested on: barnyardgrass (Echinochloa crus-galli); assay: Test A preemergence; conditions: Echinochloa crus-galli, pre-emergence, 240 h, Preemergence
Method in brief: as §1

[3] = tested on: giant foxtail (Setaria faberii); assay: Test A preemergence; conditions: Setaria faberi, pre-emergence, 240 h, Preemergence
Method in brief: as §1

[4] = tested on: pigweed (Amaranthus retroflexus); assay: Test A preemergence; conditions: Amaranthus retroflexus, pre-emergence, 240 h, 0 to 100 scale where 0 is no effect and 100 is complete control, read-out: Pigweed plant response rating
[5] = tested on: ragweed (common ragweed, Ambrosia elatior); assay: Test A preemergence; conditions: Ambrosia artemisiifolia, pre-emergence, 240 h, 0 to 100 scale where 0 is no effect and 100 is complete control, read-out: Ragweed plant response rating
Method in brief: as §1

[6] = tested on: ryegrass, Italian (Italian ryegrass, Lolium multiflorum); assay: Test A preemergence; conditions: Lolium multiflorum, pre-emergence, 240 h, 0 to 100 scale where 0 is no effect and 100 is complete control, read-out: Ryegrass, Italian plant response rating
Method in brief: as §1

[7] = tested on: Galium (catchweed bedstraw, Galium aparine); assay: Test A postemergence; conditions: Galium, post-emergence, 240 h
Method in brief: as §1

[8] = tested on: Kochia (Kochia scoparia); assay: Test A postemergence; conditions: Bassia scoparia, post-emergence, 240 h
Method in brief: as §1

[9] = tested on: barnyardgrass (Echinochloa crus-galli); assay: Test A postemergence; conditions: Echinochloa crus-galli, post-emergence, 240 h
Method in brief: as §1

[10] = tested on: blackgrass (Alopecurus myosuroides); assay: Test A postemergence; conditions: Alopecurus myosuroides, post-emergence, 240 h
Method in brief: as §1

[11] = tested on: corn (Zea mays); assay: Test A postemergence; conditions: Zea mays, post-emergence, 240 h
Method in brief: as §1

[12] = tested on: giant foxtail (Setaria faberii); assay: Test A postemergence; conditions: Setaria faberi, post-emergence, 240 h
Method in brief: as §1

[13] = tested on: pigweed (Amaranthus retroflexus); assay: Test A postemergence; conditions: Amaranthus retroflexus, post-emergence, 240 h
Method in brief: as §1

[14] = tested on: ragweed (common ragweed, Ambrosia elatior); assay: Test A postemergence; conditions: Ambrosia artemisiifolia, post-emergence, 240 h
Method in brief: as §1

[15] = tested on: ryegrass, Italian (Italian ryegrass, Lolium multiflorum); assay: Test A postemergence; conditions: Lolium multiflorum, post-emergence, 240 h
Method in brief: as §1

[16] = tested on: wheat (Triticum aestivum); assay: Test A postemergence; conditions: Triticum aestivum, post-emergence, 240 h
Method in brief: as §1

[17] = tested on: barnyardgrass (Echinochloa crus-galli); assay: Test B flooded paddy test; conditions: Echinochloa crus-galli, 250 g ai/ha, Flood; 0 to 100 scale where 0 is no effect and 100 is complete control; read-out: Barnyardgrass plant response rating
Method in brief: (§2)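 Percent control, visually estimated after 13–15 d in the greenhouse on a 0–100 basis, compares treated pots with untreated ones; compound was put into paddy water 3 cm above the soil when plants had two leaves.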

[18] = tested on: ducksalad (Heteranthera limosa); assay: Test B flooded paddy test; conditions: Heteranthera limosa, 250 g ai/ha, Flood; 0 to 100 scale where 0 is no effect and 100 is complete control; read-out: Ducksalad plant response rating
Method in brief: as §2

[19] = tested on: rice (Oryra sativa); assay: Test B flooded paddy test; conditions: Oryza sativa, 250 g ai/ha, Flood; 0 to 100 scale where 0 is no effect and 100 is complete control; read-out: Rice plant response rating
Method in brief: as §2

[20] = tested on: sedge, umbrella (small-flower umbrella sedge, Cyperus difformis); assay: Test B flooded paddy test; conditions: Cyperus difformis, 250 g ai/ha, Flood; 0 to 100 scale where 0 is no effect and 100 is complete control; read-out: Sedge, Umbrella plant response rating
Method in brief: as §2

[21] = 125 g ai/ha, preemergence, approx. 10 d

COc1cccc([C@H]2CNC(=O)[C@@H]2C(=O)Nc2cccc(F)c2F)c1F [Compound 1061] showed a pest or weed control at 31 g/ha ([1]; 31 g ai/ha, Preemergence) of 0%, a pest or weed control at 125 g/ha [1, 21] of 0% and a pest or weed control at 31 g/ha ([2]; 31 g ai/ha, 0 to 100 scale where 0 is no effect and 100 is complete control, read-out: Barnyardgrass plant response rating) of 40%. It also gave a pest or weed control at 125 g/ha ([2]; 125 g ai/ha, visual injury rating after approximately 10 d, read-out: Barnyardgrass plant response rating (0 to 100 scale, 0 is no effect, 100 is complete control)) of 80%, a pest or weed control at 31 g/ha ([3]; 31 g ai/ha, 0 to 100 scale where 0 is no effect and 100 is complete control, read-out: Foxtail, Giant plant response rating) of 20% and a pest or weed control at 125 g/ha ([3]; 125 g ai/ha, visual injury rating after approximately 10 d, read-out: Foxtail, Giant plant response rating (0 to 100 scale, 0 is no effect, 100 is complete control)) of 70%. For the same compound, the pest or weed control at 31 g/ha ([4]; 31 g ai/ha, Preemergence) was 0%, the pest or weed control at 125 g/ha [4, 21] was 0% and the pest or weed control at 31 g/ha ([5]; 31 g ai/ha, Preemergence) was 0%. The pest or weed control at 125 g/ha [5, 21] was 0%, the pest or weed control at 31 g/ha ([6]; 31 g ai/ha, Preemergence) was 0% and the pest or weed control at 125 g/ha [6, 21] was 0%. It also gave a pest or weed control at 125 g/ha ([7]; 125 g ai/ha, postemergence, visual injury on 0 to 100 scale (0 no effect, 100 complete control), approx. 10 d, read-out: Galium plant response rating) of 0%, a pest or weed control at 31 g/ha ([7]; Postemergence, 31 g ai/ha, visual injury after approx. 10 d, 0 to 100 scale, 0 no effect, 100 complete control, read-out: Plant response rating, Galium) of 0% and a pest or weed control at 125 g/ha ([8]; 125 g ai/ha, postemergence, visual injury on 0 to 100 scale (0 no effect, 100 complete control), approx. 10 d, read-out: Kochia plant response rating) of 0%. It also gave a pest or weed control at 31 g/ha ([8]; Postemergence, 31 g ai/ha, visual injury after approx. 10 d, 0 to 100 scale, 0 no effect, 100 complete control, read-out: Plant response rating, Kochia) of 0%, a pest or weed control at 125 g/ha ([9]; 125 g ai/ha, postemergence, visual injury on 0 to 100 scale (0 no effect, 100 complete control), approx. 10 d, read-out: Barnyardgrass plant response rating) of 80% and a pest or weed control at 31 g/ha ([9]; Postemergence, 31 g ai/ha, visual injury after approx. 10 d, 0 to 100 scale, 0 no effect, 100 complete control, read-out: Plant response rating, Barnyardgrass) of 50%. It also gave a pest or weed control at 125 g/ha ([10]; 125 g ai/ha, postemergence, visual injury on 0 to 100 scale (0 no effect, 100 complete control), approx. 10 d, read-out: Blackgrass plant response rating) of 0%, a pest or weed control at 31 g/ha ([10]; Postemergence, 31 g ai/ha, visual injury after approx. 10 d, 0 to 100 scale, 0 no effect, 100 complete control, read-out: Plant response rating, Blackgrass) of 0% and a plant injury at 125 g/ha ([11]; 125 g ai/ha, postemergence, visual injury on 0 to 100 scale (0 no effect, 100 complete control), approx. 10 d, read-out: Corn plant response rating) of 0%. For the same compound, the Corn plant response rating (crop injury, 0 = no effect, 100 = complete kill) at 31 g/ha ([11]; Postemergence, 31 g ai/ha, visual injury after approx. 10 d, 0 to 100 scale, 0 no effect, 100 complete control) was 0%, the pest or weed control at 125 g/ha ([12]; 125 g ai/ha, postemergence, visual injury on 0 to 100 scale (0 no effect, 100 complete control), approx. 10 d, read-out: Foxtail, Giant plant response rating) was 20% and the pest or weed control at 31 g/ha ([12]; Postemergence, 31 g ai/ha, visual injury after approx. 10 d, 0 to 100 scale, 0 no effect, 100 complete control, read-out: Plant response rating, Foxtail, Giant) was 0%. The pest or weed control at 125 g/ha ([13]; 125 g ai/ha, postemergence, visual injury on 0 to 100 scale (0 no effect, 100 complete control), approx. 10 d, read-out: Pigweed plant response rating) was 0%, the pest or weed control at 31 g/ha ([13]; Postemergence, 31 g ai/ha, visual injury after approx. 10 d, 0 to 100 scale, 0 no effect, 100 complete control, read-out: Plant response rating, Pigweed) was 0% and the pest or weed control at 125 g/ha ([14]; 125 g ai/ha, postemergence, visual injury on 0 to 100 scale (0 no effect, 100 complete control), approx. 10 d, read-out: Ragweed plant response rating) was 0%. The pest or weed control at 31 g/ha ([14]; Postemergence, 31 g ai/ha, visual injury after approx. 10 d, 0 to 100 scale, 0 no effect, 100 complete control, read-out: Plant response rating, Ragweed) was 0%, the pest or weed control at 125 g/ha ([15]; 125 g ai/ha, postemergence, visual injury on 0 to 100 scale (0 no effect, 100 complete control), approx. 10 d, read-out: Ryegrass, Italian plant response rating) was 0% and the pest or weed control at 31 g/ha ([15]; Postemergence, 31 g ai/ha, visual injury after approx. 10 d, 0 to 100 scale, 0 no effect, 100 complete control, read-out: Plant response rating, Ryegrass, Italian) was 0%. For the same compound, the plant injury at 125 g/ha ([16]; 125 g ai/ha, postemergence, visual injury on 0 to 100 scale (0 no effect, 100 complete control), approx. 10 d, read-out: Wheat plant response rating) was 0%, the plant injury at 31 g/ha ([16]; Postemergence, 31 g ai/ha, visual injury after approx. 10 d, 0 to 100 scale, 0 no effect, 100 complete control, read-out: Plant response rating, Wheat) was 0% and the pest or weed control at 250 g/ha [17] was 60%. The pest or weed control at 250 g/ha [18] was 95%, the pest or weed control at 250 g/ha [19] was 15% and the pest or weed control at 250 g/ha [20] was 0%.
